Reference: PMC10795032 (ACS Omega, 2024)

What was measured:
Type in all cases: cell-based, human
[1] = tested on: pAKT; assay: Western blot, phosphorylation of AKT; conditions: U87-MG, 5 μM, 24 h
[2] = tested on: cleaved caspase-3; assay: Western blot, cleaved caspase-3; conditions: U87-MG, 5 μM, 24 h
[3] = tested on: p-mTOR; assay: Western blot, phosphorylation of mTOR; conditions: U87-MG, 5 μM, 24 h
[4] = tested on: U87-MG cells; conditions: 5 μM with 20 μM CQ, 24 h, CCK-8
[5] = tested on: LC3; assay: Western blot, LC3-I to LC3-II conversion; conditions: U87-MG, 24 h
[6] = tested on: U87-MG cells; assay: Annexin V-FITC/PI flow cytometry apoptosis assay; conditions: 5 μM, 24 h
[7] = tested on: p62/SQSTM1; assay: Western blot, autophagic flux marker p62/SQSTM1; conditions: U87-MG, 5 μM, 24 h

COc1cc2ncnc(Nc3ccc(F)c(Cl)c3)c2cc1OCCCN1CCOCC1 [Gefitinib]
phosphorylation of AKT [1]: potent in inhibiting
cleaved caspase-3 expression [2]: cleaved caspase-3 expression can be seen
phosphorylation of mTOR [3]: potent in inhibiting
increase in cell death along with CQ compared with treated alone [4]: 2.09%
conversion of LC3-II on co-incubation with CQ ([5]; 5 μM with 20 μM CQ): significantly increases
conversion of LC3-I to LC3-II ([5]; 5 μM): able to induce autophagy
apoptosis rate (Annexin-V-positive cells) [6]: 44.16%
expression of p62 [7]: partially downregulate
